Where “and” joins values, the source holds several entries; their conditions need not be identical. Equal values may be shown once. Entries after “also recorded” stand apart in the source; their conditions may differ. Read-outs that look alike come from different tables or passages of the source.
Tests used:
[1] = test system: H37Rv strain of Mycobacterium tuberculosis; assay: microbe, parasite or virus in culture; format: cell-based
M. tuberculosis H37Rv [2] = assay: In vivo efficacy, mice infected i.v. with M. tuberculosis, CFU in spleen and lungs; set-up: species or system C57BL/6 mice
[3] = format: in vitro ADME; conditions: 6 h
Protocol: (§1) Initially, analytical methods for determination of the compounds had been developed that allowed to carry out all the PK experiments, sec FIG. 29. Here is a brief description of the experiment: (1) plasma spiked with tested compounds and 10 uL of Terfenadine or plasma samples (200 uL) added; (2) ACN (2 mL) added to precipitate protein and spin at 2,500 rpm; (3) evaporate supernatant to dryness; (4) add 200 uL of the diluting solvent: methanol (with 0.1% of trifluoroacetic acid): ammonium acetate (80/20); (5) vortex, spin, and use supernatant; (6) run LC/MS/MS on Sciex API 3000.
Biostability studies of the compounds in plasma were carried out using concentrations 1 and 15 mg/ml. The compounds were incubated for 1, 2, 3 & 6 hr at 37° C. (Table 18).

in vivo = assay: in vivo; set-up: species or system mice; conditions: mouse
Protocol: as §1
Pilot PK study of the compounds 37, 59, and 109 in mice was conducted using a cassette dosing: all the three analogs were formulated together in saline at 1.5 mg/mL, and administered to mice simultaneously orally at 25 mg/kg, peritoneally at 6 mg/kg, and intravenously. […] Obtained data are presented on FIGS. 30, 31, and 32 (tested compounds were studied under the NCI′ indexation NSC) and summarized in Table 19.

[4] = molecular target: T1, melanocortin MC4 receptor (Homo sapiens, UniProt P32245); assay: CEREP receptor binding, MC4; conditions: tested at 10 μM; read-out: inhibition of control specific binding
T1 construct: CEREP (contract testing)
Text: In vitro testing for safety pharmacology and early ADMET (Absorption, Distribution, Metabolism, Excretion, Toxicity) studies of compound 109 were contracted out to CEREP (15318 NE 95th Street, Redmond, Wash., 98052, USA www.cerep.com) under a service agreement and included evaluation of inhibitory binding to a panel of 27 standard receptors and three transporters (See FIG. 60 (Table 31) and FIG. 61 (Table 32)) which included: adenosine receptors (A1 and A2A), adrenergic receptors (alpha 1, alpha 2, beta 1), angiotensin II receptor (AT1), benzodiazapene receptor (BZD), bradykinin receptor (B2), cholecystokinin receptor (CCK1), dopamine receptors (D1, D2S), endothelin receptor (ETA), GABA receptor (GABA), glutamate receptor (NMDA), histamine receptor (H1 central), melanocortin receptor (MC4), muscarinic receptor (M, non-selective), neurokinin receptor (NK1), neuropeptide Y receptor (Y), nicotinic receptor (neuronal, alpha-BGTX-insensitive), opiate receptor (non-selective opiate), orphanin receptor (ORL1), phencyclidine receptor (PCP), serotonin receptor (5-HT), sigma receptor (sigma non-selective), steroid receptor (glucocorticoid receptor, GR), and NE, DA, and 5-HT transporters.
The specific ligand binding to the receptors is defined as the difference between the total binding and the nonspecific binding determined in the presence of an excess of unlabelled ligand.

M. tuberculosis H37Rv [5] = assay: Two-drug combination growth inhibition, BACTEC 460, x/y quotient; format: cell-based; conditions: for interaction of SQ109 with isoniazid: both drugs at 0.5 MIC
[6] = test system: RIF^R M. tuberculosis strain 3185; format: cell-based
human CYP2D6 = human CYP2D6 (Homo sapiens, UniProt P10635); assay: Metabolism by CYP2D6; format: in vitro ADME
Text: Two of the groups contained oxidized metabolites. […] Based on the finding that SQ109 was metabolized rapidly by CYP, it is possible that its antimycobacterial activity may come from one of its metabolites. It is conceivable that SQ109 is a prodrug and requires activation by mycobacterial CYP. We speculate that when SQ109 is used in combination with rifampicin, the latter induces certain CYP activity within the Mycobacteria. Elevated CYP activity activates the SQ109 prodrug more efficiently, resulting in an apparent synergistic activity of the two drugs.

[7] = sub-MIC concentrations, listed as SQ109

T1 sequence (P32245 whole entry): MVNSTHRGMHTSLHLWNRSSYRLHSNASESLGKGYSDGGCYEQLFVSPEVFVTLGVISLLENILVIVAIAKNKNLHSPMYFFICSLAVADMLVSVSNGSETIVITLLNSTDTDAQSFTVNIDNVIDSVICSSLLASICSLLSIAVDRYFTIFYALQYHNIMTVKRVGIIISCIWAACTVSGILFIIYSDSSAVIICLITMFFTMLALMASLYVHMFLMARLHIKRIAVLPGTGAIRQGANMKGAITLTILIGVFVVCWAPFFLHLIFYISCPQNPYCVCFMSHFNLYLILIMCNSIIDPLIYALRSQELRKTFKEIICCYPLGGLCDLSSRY
human CYP2D6, sequence (P10635 whole entry): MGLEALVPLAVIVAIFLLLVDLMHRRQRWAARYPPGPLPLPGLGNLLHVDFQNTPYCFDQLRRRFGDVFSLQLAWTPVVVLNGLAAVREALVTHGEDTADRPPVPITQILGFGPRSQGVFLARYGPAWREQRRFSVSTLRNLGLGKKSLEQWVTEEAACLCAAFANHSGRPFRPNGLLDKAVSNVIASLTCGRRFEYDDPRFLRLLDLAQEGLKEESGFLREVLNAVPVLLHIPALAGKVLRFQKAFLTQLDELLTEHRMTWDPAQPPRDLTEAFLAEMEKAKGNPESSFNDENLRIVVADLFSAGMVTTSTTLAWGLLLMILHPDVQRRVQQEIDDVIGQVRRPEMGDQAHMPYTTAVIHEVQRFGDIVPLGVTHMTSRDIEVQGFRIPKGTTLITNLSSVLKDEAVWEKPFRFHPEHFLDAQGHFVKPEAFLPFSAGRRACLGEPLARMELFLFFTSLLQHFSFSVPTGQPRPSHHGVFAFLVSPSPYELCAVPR

CC(C)=CCC/C(C)=C/CNCCNC1C2CC3CC(C2)CC1C3 (centres unmarked) [Compound 109, N-Geranyl-N′-(2-adamanthyl)ethane-1,2-diamine]
MIC [1]: 1.953 µM and 1.95 µM
MIC ([1]; Mycobacterium tuberculosis, H37RV, Table 10, from uM and MW, read-out: MIC): 0.879 µg/mL
MIC ([1]; Mycobacterium tuberculosis, H37RV, Table 10, read-out: MIC): 1.95 µM
MIC ([1]; Mycobacterium tuberculosis, H37RV, Table 15, read-out: MIC): 1.56 µM
MIC ([1]; Mycobacterium tuberculosis, H37RV, previously determined, read-out: MIC by micro-broth dilution): 0.2 µM and 0.11 µg/mL
MIC ([1]; Mycobacterium tuberculosis, H37RV, read-out: MIC): 1.95 µM
difference with untreated control, spleen and lung (M. tuberculosis H37Rv [2]; 0.1 mg/kg after 4 weeks of therapy, 5×10^6 CFU): minimal but sufficient difference with untreated control
activity in the spleen compared with EMB (M. tuberculosis H37Rv [2]; 1 mg/kg and 10 mg/kg, 5×10^5 CFU, chemotherapy from day 20): equal to that of EMB at 100 mg/kg
activity in the lung compared with EMB (M. tuberculosis H37Rv [2]; 10 mg/kg after 4 and 6 weeks, 5×10^5 CFU): more effective than EMB at 100 mg/kg
activity in spleen and lung compared with EMB (M. tuberculosis H37Rv [2]; 10 mg/kg and 25 mg/kg, shorter model, 5×10^6 CFU, 4 weeks): equal to that of EMB at 100 mg/kg
activity (CFUs in spleen and lungs) compared with ethambutol (M. tuberculosis H37Rv [2]; doses 1 and 10 mg/kg, orally by gavage): equal to that of ethambutol at 100 mg/kg
Biostability in plasma (% ↓) ([3]; dog): 40% ↓
Biostability in plasma (% ↓) ([3]; human): 30% ↓
Biostability in plasma (% ↓) ([3]; mouse): stable
Biostability in plasma (% ↓) ([3]; rat): stable
AUC (in vivo; ip, 6 mg/kg): 1100 ng·h/mL
Cmax (in vivo; ip, 6 mg/kg): 935 ng/mL
Urine excretion (%) (in vivo; ip, 6 mg/kg): <0.01%
bioavailability (in vivo; ip, 6 mg/kg): 55%
half-life (in vivo; ip, 6 mg/kg): 4.4 h
AUC (in vivo; iv, 3 mg/kg): 1010 ng·h/mL
Cmax (in vivo; iv, 3 mg/kg): 1190 ng/mL
Urine excretion (%) (in vivo; iv, 3 mg/kg): .92%
clearance (in vivo; iv, 3 mg/kg): 54 mL/min/kg
half-life (in vivo; iv, 3 mg/kg): 5.5 h
AUC (in vivo; po, 25 mg/kg): 655 ng·h/mL
Cmax (in vivo; po, 25 mg/kg): 227 ng/mL
bioavailability (in vivo; po, 25 mg/kg): 2.7%
inhibition at 10 µM [4]: 90%
growth inhibition of inoculum (M. tuberculosis H37Rv [5]; 0.5 MIC SQ109 in combination with 0.1 MIC RIF): greater than 99%
Synergy quotient (x/y) (M. tuberculosis H37Rv [5]; SQ109 1/10 MIC + INH ½ MIC): 1
Synergy quotient (x/y) (M. tuberculosis H37Rv [5]; SQ109 1/10 MIC + MOX ½ MIC): 1
Synergy quotient (x/y) (M. tuberculosis H37Rv [5]; SQ109 1/10 MIC + MOX ⅕ MIC): 1
Synergy quotient (x/y) (M. tuberculosis H37Rv [5]; SQ109 1/10 MIC + RIF 1/10 MIC): 1
Synergy quotient (x/y) (M. tuberculosis H37Rv [5]; SQ109 1/10 MIC + RIF 1/20 MIC): 1
Synergy quotient (x/y) (M. tuberculosis H37Rv [5]; SQ109 1/10 MIC + RIF ¼ MIC): 1
Synergy quotient (x/y) (M. tuberculosis H37Rv [5]; SQ109 1/10 MIC + RIF ½ MIC): 0.16
Synergy quotient (x/y) (M. tuberculosis H37Rv [5]; SQ109 1/10 MIC + SM ½ MIC): 0.98
Synergy quotient (x/y) (M. tuberculosis H37Rv [5]; SQ109 1/20 MIC + INH ½ MIC): 1
Synergy quotient (x/y) (M. tuberculosis H37Rv [5]; SQ109 1/20 MIC + MOX ½ MIC): 1
Synergy quotient (x/y) (M. tuberculosis H37Rv [5]; SQ109 1/20 MIC + MOX ⅕ MIC): 1
Synergy quotient (x/y) (M. tuberculosis H37Rv [5]; SQ109 1/20 MIC + RIF 1/10 MIC): 1
Synergy quotient (x/y) (M. tuberculosis H37Rv [5]; SQ109 1/20 MIC + RIF 1/20 MIC): 1
Synergy quotient (x/y) (M. tuberculosis H37Rv [5]; SQ109 1/20 MIC + RIF ¼ MIC): 1
Synergy quotient (x/y) (M. tuberculosis H37Rv [5]; SQ109 1/20 MIC + RIF ½ MIC): 0.32
Synergy quotient (x/y) (M. tuberculosis H37Rv [5]; SQ109 1/20 MIC + SM ½ MIC): 1
Synergy quotient (x/y) (M. tuberculosis H37Rv [5]; SQ109 ½ MIC + INH ½ MIC): 0.45
Synergy quotient (x/y) (M. tuberculosis H37Rv [5]; SQ109 ½ MIC + MOX ½ MIC): 0.45
Synergy quotient (x/y) (M. tuberculosis H37Rv [5]; SQ109 ½ MIC + MOX ⅕ MIC): 0.51
Synergy quotient (x/y) (M. tuberculosis H37Rv [5]; SQ109 ½ MIC + RIF 1/10 MIC): 0.29
Synergy quotient (x/y) (M. tuberculosis H37Rv [5]; SQ109 ½ MIC + RIF 1/20 MIC): 0.61
Synergy quotient (x/y) (M. tuberculosis H37Rv [5]; SQ109 ½ MIC + RIF ¼ MIC): 0.23
Synergy quotient (x/y) (M. tuberculosis H37Rv [5]; SQ109 ½ MIC + RIF ½ MIC): 0.12
Synergy quotient (x/y) (M. tuberculosis H37Rv [5]; SQ109 ½ MIC + SM ½ MIC): 0.57
Synergy quotient (x/y) (M. tuberculosis H37Rv [5]; SQ109 ⅕ MIC + INH ½ MIC): 0.83
Synergy quotient (x/y) (M. tuberculosis H37Rv [5]; SQ109 ⅕ MIC + MOX ½ MIC): 0.96
Synergy quotient (x/y) (M. tuberculosis H37Rv [5]; SQ109 ⅕ MIC + MOX ⅕ MIC): 1
Synergy quotient (x/y) (M. tuberculosis H37Rv [5]; SQ109 ⅕ MIC + RIF 1/10 MIC): 1
Synergy quotient (x/y) (M. tuberculosis H37Rv [5]; SQ109 ⅕ MIC + RIF 1/20 MIC): 1
Synergy quotient (x/y) (M. tuberculosis H37Rv [5]; SQ109 ⅕ MIC + RIF ½ MIC): 0.4
Synergy quotient (x/y) (M. tuberculosis H37Rv [5]; SQ109 ⅕ MIC + SM ½ MIC): 0.74
interaction of SQ109 with isoniazid (M. tuberculosis H37Rv [5]; listed as SQ 109): strong synergistic activity
interaction of SQ109 with isoniazid (M. tuberculosis H37Rv [5]; listed as SQ109): synergy
interaction of SQ109 with pyrazinamide (M. tuberculosis H37Rv [5]; sub-MIC concentrations, PZA Test Medium, listed as SQ109): neither synergy nor additive effects; also recorded: did not show any positive interaction
interaction of SQ109 with rifampicin (M. tuberculosis H37Rv [5]; sub-MIC concentrations, listed as SQ 109): strong synergistic activity
interaction of SQ109 with ethambutol (M. tuberculosis H37Rv [5]; [7]): neither synergy nor additive effects; also recorded: did not show any positive interaction; also recorded: no interaction
interaction of SQ109 with rifampicin (M. tuberculosis H37Rv [5]; [7]): marked synergy
interaction of SQ109 with streptomycin (M. tuberculosis H37Rv [5]; [7]): additive effect; also recorded: only additive interaction
growth inhibition [6]: greater than 99%
x/y quotient ([6]; 0.5 MIC SQ109 + rifampicin 4 mg/L): 0.64
x/y quotient ([6]; 0.5 MIC SQ109 + rifampicin 8 mg/L): 0.48
x/y quotient ([6]; 0.5 MIC SQ109 + rifampicin 12 mg/L): 0.40
x/y quotient ([6]; 0.5 MIC SQ109 + rifampicin 16 mg/L): 0.35
metabolism by CYP (human CYP2D6): metabolized
